In this test the test system is human platelet rich plasma (ADP-induced platelet aggregation). Nature of the test: Inhibition of human platelet aggregation, "Born"-method (single cuvettes). The class given is cell-based. The note with it: 0.1 h, aggregation induced by ADP, single use cuvettes, platelet aggregation profiler, 6 minutes at 37° C. Here is the method: Inhibition of Human Platelet Aggregation
Alternatively to a binding assay which measures a compound's ability to bind to the P2Y12 receptor, the effect on cellular function was also determined. This ability of the compound was evaluated in two platelet aggregation assays: in 96-well plates and with the “Born”-method using single cuvettes.
Whole blood was collected from healthy volunteers using 20 ml syringes containing 2 ml of buffered Citrate. The anticoagulated whole blood was transferred into 15 ml polypropylene conical tubes (10 ml per tube). The tubes were centrifuged for 15 minutes at 340×g at RT without using the centrifuge brake. This procedure leads to a pellet of cellular components and a supernatant of platelet rich plasma (PRP). The PRP layer was collected from each tube and pooled for each donor. To avoid carry over of cellular components following centrifugation, approximately 5 ml of PRP was left in the tube. The platelet concentration was determined using a Coulter Counter.
The 15 ml tubes containing the pellet of cellular components were centrifuged again for 10 minutes at 1940×g. This pelleted out most particulate blood constituents remaining, leaving a layer of Platelet Poor Plasma (PPP). The PPP was collected for each donor. The PRP layer, previously set aside, was diluted with PPP to a final concentration of approximately 3×E8 platelets/ml with the PPP.
The human platelet aggregation assay is performed in single use cuvettes using the platelet aggregation profiler (PAP-4 or -8, Bio/Data corporation).
In the assay cuvette 4 μl of test compound at 100× final concentration in DMSO is mixed with 392 μl fresh PRP and incubated for 2 minutes at 37° C. with 1.200 rpm stirring. Following that incubation period, 4 μl of 250 μM ADP is added to the reaction mix. […] After that aggregation is measured over 6 minutes at 37° C. with 1.200 rpm stirring. Results of the assay are expressed as % inhibition, and are calculated using maximum aggregation (Tmax) or area under curve (AUC) of the absorbance over 6 minutes. […]

One may read the IC50 as the concentration needed to halve the response being measured. In turn, `CCOC(=O)N1CCN(C(=O)[C@H](CCC(=O)O)NC(=O)c2cc(OC3(C(=O)OCC)CCC3)n(-c3ccccc3)n2)CC1` [Example 1, 4-((S)-4-Carboxy-2-{[5-(1-ethoxycarbonyl-cyclobutoxy)-1-phenyl-1H-pyrazole-3-carbonyl]-amino}-butyryl)-piperazine-1-carboxylic acid ethyl ester] gave an IC50 of 2930 nM.

In turn, `CCOC(=O)COc1cc(C(=O)N[C@@H](CCC(=O)O)C(=O)N2CCN(C(=O)OCC)CC2)nn1-c1ccccc1` [Example 5, 4-{(S)-4-Carboxy-2-[(5-ethoxycarbonylmethoxy-1-phenyl-1H-pyrazole-3-carbonyl)-amino]-butyryl}-piperazine-1-carboxylic acid ethyl ester] came in with an IC50 of 2480 nM.

`CCOC(=O)N1CCN(C(=O)[C@H](CCC(=O)O)NC(=O)c2cc(OCC(=O)C(C)(C)C)n(-c3ccccc3)n2)CC1` [Example 80, 4-((S)-4-Carboxy-2-{[5-(3,3-dimethyl-2-oxo-butoxy)-1-phenyl-1H-pyrazole-3-carbonyl]-amino}-butyryl)-piperazine-1-carboxylic acid ethyl ester] had an IC50 of 2460 nM.

The values above are taken from patent publication US8598179B2, “Pyrazole-carboxamide derivatives as P2Y12 antagonists” (Sanofi, priority 2007, dated 2013).
